{
  "source": "patent US20180264088A1",
  "about": "“USE OF CREATINE KINASE AND DERIVED PEPTIDES THEREOF TO RELIEVE PAIN” (CENTRE NATIONAL DE LA RECHERCHE SCIENTIFIQUE, priority 2015, published 2018)",
  "key": {"[1]": {"system": "cuffed mice C57Bl6/J", "experiment": "Intrathecal injection of AI-25, mechanical nociceptive threshold of cuffed mice", "type": "in vivo", "settings": "10 nmoles", "method": "(§1) Experiments and surgeries were performed as previously described.\n(§2) The functional property of peptide AI-25 (10 nmoles) was evaluated through injections in the spinal cord of 8 mice C57B16/J (intrathecal injection, volume 5 μl). The aim was to study the consequences of these injections on mechanical nociceptive threshold of cuffed mice using the calibrated forceps test.\n(§3) The mechanical threshold for hind paw withdrawal was determined using Von Frey filaments as previously described."}, "[2]": {"system": "cuffed rats (neuropathic)", "experiment": "Intrathecal injection, cuff neuropathic rat model, calibrated forceps test", "type": "in vivo", "settings": "10 nmoles", "method": "Experiments were performed on adult male Wistar at (6 weeks old, Charles River, L'Arbresle, France). Animals were housed in groups of 3, under standard conditions (room temperature: 22° C.; 12/12-hour light-dark cycle) with ad libitum access to food and water. All experiments were conducted according to the recommendations of the European Committee Council Direction of Sep. 22, 2010 (2010/63/EU). Procedures were positively evaluated by the regional ethical committee, and experiments were conducted with an official authorization for animal experimentation from the French Department of Agriculture (license 67-116 to P.P.).\n(§4) All surgeries were done under aseptic conditions and ketamine/xylazine anaesthesia (ketamine: 17 mg/ml, xylazine: 2.5 mg/ml, i.p., 4 ml/kg, i.p.; Centravet, Taden, France). The right sciatic nerve was cuffed with a section of polyethylene tubing (cuff group) as previously described [Mosconi et Kruger, Pain, 64(1): 37-57, 1996] [7]. Sham-operated mice underwent the same surgical procedure as cuffed animals without implantation of the cuff (sham group).\nThe functional property of peptide P4 (10 nmoles) was evaluated through injections in the spinal cord of 1 groups of 3 rats (intrathecal injection, volume of 5 μl). The aim was to study the consequences of these injections on mechanic nociceptive threshold of cuffed animals in comparison of the sham group (control), using the calibrated forceps test. Rats were previously placed under gaseous anesthesia with isoflurane (volatile anesthetic agent) with a minimum alveolar concentration (MAC) of 1.34%. A 27-gauge needle connected to a syringe was inserted between the vertebrae L5 and L6, in the subarachnoid space.\nThe mechanical response was evaluated using digital calibrated forceps (Bioseb, Chaville, France) according to company's recommendations, before and 1 to 6 hours after intrathecal injections."}, "[3]": {"system": "C57Bl/6J mice", "experiment": "Intrathecal injection, mechanical nociceptive thresholds of healthy mice, von Frey filaments", "type": "in vivo", "settings": "for analgesia (mechanical nociceptive threshold vs control): right leg, two-ways ANOVA", "method": "(§5) Experiments were performed on adult male C57Bl/6J mice (6 weeks old, Charles River, L'Arbresle, France). Animals were housed in groups of 3, under standard conditions (room temperature: 22° C.; 12/12-hour light-dark cycle) with ad libitum access to food and water. All experiments were conducted according to the recommendations of the European Committee Council Direction of Sep. 22, 2010 (2010/63/EU).\nThe functional properties of peptides P1 (20 nmoles) and P4 (10 nmoles) were evaluated through injections in the spinal cord of 4 groups of 6 mice C57B16/J (intrathecal injection, volume of 5 μl). […] Mice were previously placed under gaseous anesthesia with isoflurane (volatile anesthetic agent) with a minimum alveolar concentration (MAC) of 1.34%. A 27-gauge needle connected to a syringe was inserted between the vertebrae L5 and L6, in the subarachnoid space. Isoflurane induced a general anesthesia with respiratory depression in mice.\n(§6) The mechanical threshold for hind paw withdrawal was determined using Von Frey hairs. Mice were placed in clear plexiglass boxes on an elevated mesh screen. Von Frey filaments (Bioseb, Chaville, France) were applied to the plantar surface of each hind paw in a series of ascending forces (0.4 g-15 g). Filaments were tested 5 times per paw, and the mechanical threshold was defined as 3 or more withdrawals out of the 5 trials. Lithium chloride and naloxone (Sigma-Aldrich, St. Louis, U.S.A.) were diluted in NaCl 0.9% (w/v)."}, "[4]": {"system": "C57Bl/6J neuropathic mice", "experiment": "Intraperitoneal injection, mechanical nociceptive thresholds of neuropathic (cuffed) mice, von Frey filaments", "type": "in vivo", "settings": "10 nmoles; for effect on mechanical thresholds of Sham animals: Sham mice", "method": "as §5, with “5,” for “3,”\nas §4, with “[7].” for “[7]. Sham-operated mice underwent the same surgical procedure as cuffed animals without implantation of the cuff (sham group).”\nas §6, with “trials.” for “trials. Lithium chloride and naloxone (Sigma-Aldrich, St. Louis, U.S.A.) were diluted in NaCl 0.9% (w/v).”"}, "[5]": {"experiment": "ELISA on peptide-coated plate: affinity for morphine", "settings": "ligand 300 μM to 0.1 μM"}, "[6]": {"system": "cuffed mice C57Bl6/J", "experiment": "Intrathecal injection of KN-50, mechanical nociceptive threshold of cuffed mice", "type": "in vivo", "settings": "33 nmoles, vs saline solution", "method": "as §1\nas §2, with “KN-50 (33” for “AI-25 (10”, “nmoles) and NaCl 0.9%” for “nmoles)”, “mice, in comparison of saline solution.” for “mice using the calibrated forceps test.”\nas §3"}, "[7]": {"molecular_target": "CK-M (Homo sapiens, UniProt P06732)", "sequence (P06732 whole entry, species assumed)": "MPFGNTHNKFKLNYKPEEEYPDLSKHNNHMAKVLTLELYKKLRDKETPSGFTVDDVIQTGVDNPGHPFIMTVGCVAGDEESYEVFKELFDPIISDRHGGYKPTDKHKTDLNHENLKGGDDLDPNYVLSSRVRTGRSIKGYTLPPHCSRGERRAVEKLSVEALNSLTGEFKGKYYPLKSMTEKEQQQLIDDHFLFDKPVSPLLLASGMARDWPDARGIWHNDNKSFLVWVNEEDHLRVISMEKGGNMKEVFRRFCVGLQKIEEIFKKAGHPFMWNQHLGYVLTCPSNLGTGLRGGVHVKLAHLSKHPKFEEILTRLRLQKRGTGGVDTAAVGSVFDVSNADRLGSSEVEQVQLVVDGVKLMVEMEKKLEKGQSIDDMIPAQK", "experiment": "Inhibitory effect of morphine on ATP formation by creatine kinase", "type": "biochemical", "settings": "ratio 3n/1n (FIG. 2)"}, "[8]": {"settings": "intrathecal, 10 nmoles, healthy mice"}, "[9]": {"settings": "neuropathic mice, comparison to baseline"}, "[10]": {"settings": "intrathecal, 20 nmoles, healthy mice"}},
  "data": [
    {"molecule": "peptide AI-25: peptide derived from P4, amino acids 214-238 (SEQ ID NO: 4) of mouse creatine kinase B", "values": [
      {"measurement": "neuropathic pain, ipsilateral paw mechanical threshold", "setting": "[1]", "value": "reversed the neuropathic pain"},
      {"measurement": "non-cuffed contralateral paw mechanical threshold", "setting": "[1]", "value": "did not significantly affect"},
      {"measurement": "neuropathic pain, ipsilateral paw mechanical threshold", "setting": "[1]; listed as amino acids 214-238", "value": "present analgesic activity"}
    ]},
    {"molecule": "peptide P4: peptide consisting of amino acids 184-258 (SEQ ID NO: 3) of the mouse CK-B sequence SEQ ID NO: 1", "values": [
      {"measurement": "neuropathic pain, ipsilateral paw mechanical threshold", "setting": "[2]; cuffed rats", "value": "reverses the neuropathic pain"},
      {"measurement": "non-cuffed contralateral paw mechanical threshold", "setting": "[2]; cuffed rats", "value": "did not affect"},
      {"measurement": "duration of analgesia", "setting": "[2]; cuffed rats, ipsilateral paw", "value": "at least 6 h"},
      {"measurement": "neuropathic pain, ipsilateral paw mechanical threshold", "setting": "[2]; cuffed rats, listed as peptide 4", "value": "reversed the neuropathic pain"},
      {"measurement": "mechanical threshold of the sham group", "setting": "[2]; sham rats", "value": "did not affect"},
      {"measurement": "values of von Frey / sensitivity towards mechanical stimulation", "setting": "[3]; [8]", "value": "close or equal to cut-off"},
      {"measurement": "analgesia (mechanical nociceptive threshold vs control)", "setting": "[3]; [8]", "value": "induced a significant analgesia"},
      {"measurement": "values of von Frey / sensitivity towards mechanical stimulation", "setting": "[3]; intrathecal, 10 nmoles, healthy mice, listed as amino acids 184-258", "value": "almost complete insensitivity"},
      {"measurement": "occlusion of analgesic activity by morphine", "setting": "[3]; peptide 10 nmoles injected in presence of 10 nmoles of morphine", "value": "not observed"},
      {"measurement": "effect on mechanical thresholds of Sham animals", "setting": "[4]", "value": "No significant effect"},
      {"measurement": "basic mechanical nociceptive thresholds of the contralateral hind legs", "setting": "[4]; neuropathic mice", "value": "do not modify"},
      {"measurement": "analgesic effect, ipsilateral paw, at 3 h", "setting": "[4]; [9]", "value": "significant analgesic effect"},
      {"measurement": "analgesic effect, ipsilateral paw, at 4 h post injection", "setting": "[4]; [9]", "value": "significant analgesic effect"},
      {"measurement": "affinity for morphine", "setting": "[5]", "value": "showed an affinity"}
    ]},
    {"molecule": "peptide P1: peptide consisting of amino acids 1-75 (SEQ ID NO: 2) from the mouse CK-B sequence SEQ ID NO: 1", "values": [
      {"measurement": "values of von Frey / sensitivity towards mechanical stimulation", "setting": "[3]; [10]", "value": "close or equal to cut-off"},
      {"measurement": "analgesia (mechanical nociceptive threshold vs control)", "setting": "[3]; [10]", "value": "induced a significant analgesia"},
      {"measurement": "values of von Frey / sensitivity towards mechanical stimulation", "setting": "[3]; intrathecal, 20 nmoles, healthy mice, listed as amino acids 1-75", "value": "almost complete insensitivity"},
      {"measurement": "occlusion of analgesic activity by morphine", "setting": "[3]; peptide 20 nmoles injected in presence of 10 nmoles of morphine", "value": "occlusion of analgesic activity"},
      {"measurement": "affinity for morphine", "setting": "[5]", "value": "showed an affinity"}
    ]},
    {"molecule": "peptide KN-50: peptide derived from P4, amino acids 196-246 (SEQ ID NO: 5) of mouse creatine kinase B", "values": [
      {"measurement": "neuropathic pain, ipsilateral paw mechanical threshold", "setting": "[6]", "value": "reversed the neuropathic pain"},
      {"measurement": "non cuffed contralateral paw mechanical threshold", "setting": "[6]", "value": "did not affect"},
      {"measurement": "neuropathic pain, ipsilateral paw mechanical threshold", "setting": "[6]; listed as amino acids 196-246", "value": "present analgesic activity"}
    ]},
    {"molecule": "CN1CC[C@]23c4c5ccc(O)c4O[C@H]2[C@@H](O)C=C[C@H]3[C@H]1C5", "note": "[morphine, reference compound]", "values": [
      {"measurement": "inhibition of enzymatic activity of CK (production of ATP from phosphocreatine)", "setting": "[7]", "value": "~18", "unit": "%"},
      {"measurement": "analgesia on right leg 4 hours after injection", "setting": "[3]; intrathecal, 10 nmoles, healthy mice, Holm-Sidak", "value": "significant analgesia"},
      {"measurement": "analgesia (mechanical nociceptive threshold vs control)", "setting": "[3]; [8]", "value": "induced a significant analgesia"},
      {"measurement": "effect on mechanical thresholds of Sham animals", "setting": "[4]", "value": "No significant effect"},
      {"measurement": "analgesic effect, ipsilateral paw, at 3 h", "setting": "[4]; [9]", "value": "significant analgesic effect"}
    ]}
  ]
}
